This passage reports GI50 and TGI results from PubChem BioAssay (NCI).

Common to all, as to test: inhibition of tumour cell growth, NCI panel, 48 h
Assay [1] has as its system BT-549 breast.
The subject of assay [2] is HL-60(TB) leukemia.
Assay [3] has as its system HS 578T breast.
In assay [4] the test system is MDA-MB-231 breast.
Assay [5] has as its system MDA-MB-435.
Assay [6] deals with OVCAR-3 ovarian.
The test system of assay [7] is PC-3 prostate.
Assay [8] deals with DMS 114 small cell lung.
Assay [9] relates to DMS 273 small cell lung.
For assay [10], the system named is M19-MEL melanoma.

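Protocol summary: plate cells (96-well), add compound at 5 concentrations, incubate 48 h, interpolate endpoints linearly. Abbreviation: GI50, concentration required for 50% inhibition of growth. TGI marks complete inhibition of growth.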 *1 amine or outer side, *2 acyl side, *3 side chain or, on linkers, in order; H or OH if unused. Where a SMILES comes first, the peptide text is derived from it. Bridges are numbered along the chain shown (N, C = ends). [ ]: non-standard residue; d: D form. The star is where a group is joined. X19 = O=C([C@H](N[*:1])c1ccc(O[C@H]2O[C@@H](CO)[C@@H](O)[C@@H](O)[C@H]2O[C@@H]2O[C@H](CO)[C@H](O)[C@H](O)[C@@H]2O)cc1)[*:2]; X18 = NC(=O)[C@@H](O[*:3])[C@H](N[*:1])C(=O)[*:2]; X20 = O=C([C@H](N[*:1])c1ccc(O)c(Cl)c1)[*:2]; d(aThr) = C[C@@H](O)[C@@H](N)C(=O)O; dHpg = N[C@@H](C(=O)O)c1ccc(O)cc1; X17 = CC(C)C/C=C/C=C/C(=O)*; dOrn = NCCC[C@@H](N)C(=O)O

For `C[C@@H](Oc1cc(NS(=O)(=O)N2CCC2)nc(SCc2cccc(F)c2F)n1)[C@@H](O)CO`, the GI50 in [1], in assay [2], in assay [3], in assay [4], in assay [5] and in assay [6] was greater than 100 µM each time. Moreover, the GI50 in assay [7] was greater than 100 µM. Besides, the TGI in [1], in [2], in assay [3], in assay [4], in assay [5] and in assay [6] was greater than 100 µM throughout. Besides, in assay [7], the TGI is greater than 100 µM.

On to `N=C1C(c2nc3ccccc3s2)=C(O)CN1c1ccc(Cl)cc1Cl`, for which the GI50 in assay [1] is 17.8 µM; in assay [2], 41.9 µM; in assay [3], 25.5 µM; in [4], 17.1 µM; in assay [5], 16.5 µM; in assay [6], 18.7 µM. The GI50 in assay [7] was 11.5 µM. Moreover, the TGI in [1] is 49.6 µM; in assay [2], greater than 100 µM; in assay [3], 75.9 µM; in [4], 42.9 µM; in [5], greater than 100 µM; in [6] it was greater than 100 µM. The TGI in assay [7] is 29 µM.

As for `Cc1cccc2c1NC(=O)[C@@]21[C@H](C(=O)c2ccccc2)[C@]2(C(=O)Nc3ccccc32)[C@H]2CCCN21`, the GI50 was 27.4 µM in assay [1]; 56.8 µM in assay [2]; 19.5 µM in assay [3]; 21.3 µM in assay [4]; 94.7 µM in assay [5]; 15.5 µM in assay [6]. Further, the GI50 in [7] was 36.4 µM. For the same molecule, the TGI in [1], in [2], in [3], in assay [4], in assay [5] and in assay [6] was greater than 100 µM throughout. In addition, the TGI in [7] is greater than 100 µM.

On to `O=C1/C(=C/c2ccccc2)CN(CCC(=O)N2C/C(=C\c3ccccc3)C(=O)/C(=C/c3ccccc3)C2)C/C1=C\c1ccccc1`, for which the GI50 is 9.91 µM in [1]; 13.7 µM in assay [2]; 10.7 µM in assay [3]; 10.7 µM in assay [4]; 0.683 µM in [5]; 3.07 µM in assay [6]. Besides, in [7], the GI50 is 6.02 µM. The TGI in [1] was 36.4 µM; in [2], greater than 100 µM; in assay [3], 55.4 µM; in assay [4], 56.2 µM; in assay [5], 5.68 µM; in assay [6], 19.2 µM. For the same molecule, the TGI in assay [7] was greater than 69.9 µM.

Take `CC(C)C/C=C/C=C/C(=O)N[C@@H](CC(N)=O)C(=O)N[C@@H]1C(=O)N[C@H](c2ccc(O)cc2)C(=O)N[C@H](CCCN)C(=O)N[C@H]([C@@H](C)O)C(=O)N[C@H](c2ccc(O)cc2)C(=O)N[C@H](c2ccc(O)cc2)C(=O)N[C@H]([C@H](C)O)C(=O)N[C@H](Cc2ccccc2)C(=O)N[C@H](CCCN)C(=O)N[C@H](c2ccc(O[C@H]3O[C@@H](CO)[C@@H](O)[C@@H](O)[C@H]3O[C@@H]3O[C@H](CO)[C@H](O)[C@H](O)[C@@H]3O)cc2)C(=O)N[C@H]([C@H](C)O)C(=O)N[C@H](c2ccc(O)cc2)C(=O)NCC(=O)N[C@H](CC(C)C)C(=O)N[C@H](C)C(=O)N[C@H](c2ccc(O)c(Cl)c2)C(=O)O[C@@H]1C(N)=O` (X17-N[X18][dHpg][dOrn][d(aThr)][dHpg][dHpg][dT][dF][dOrn][X19][dT][dHpg]G[dL][dA][X20]; ester 2-C): the GI50 in [1] is 37.6 µM; in [2], greater than 100 µM; in assay [3], 27.8 µM; in assay [4], 16.1 µM; in [5] it was 26 µM; in assay [6], 46.5 µM. In addition, the GI50 in [7] is 44 µM. Moreover, the TGI in assay [1] was 87.1 µM; in assay [2] it was greater than 100 µM; in [3] it was 82.1 µM; in [4], 39.6 µM; in assay [5], 72.8 µM; in assay [6] it was greater than 100 µM. The molecule also showed a TGI in assay [7] greater than 100 µM.

Regarding `O=C1CCC2=C3C4CCCCC4C(=O)C4CCCC(OC2C1)C34` (configuration not stated), the GI50 is 1.4 µM in [1]; 0.17 µM in assay [2]; 1.96 µM in [3]; 1.47 µM in [4]; 0.516 µM in assay [5]; 0.428 µM in assay [6]. Also, in [7], the GI50 is 2.57 µM. Further, the TGI in assay [1] was 6.03 µM; in assay [2], 0.998 µM; in assay [3], 6.88 µM; in [4] it was greater than 27.6 µM; in assay [5], 2.08 µM; in assay [6], 2.73 µM. The molecule also showed a TGI in [7] greater than 29.6 µM.

As to `ClC1(c2ccccc2)c2ccc(Br)cc2-c2cc(Br)ccc21`, the TGI in assay [1] was 37.7 µM; in [2] it was greater than 100 µM; in assay [3], 50.3 µM; in assay [4] it was 30.7 µM; in [5], 27.4 µM; in assay [6], 30.6 µM. Also, the TGI in assay [7] was 31.3 µM.

As for `O=C(CN1CCOCC1)CC(O)(C(F)(F)F)C(F)(F)F`, the TGI in assay [1], in assay [2], in [3], in assay [4], in assay [5] and in [6] was greater than 100 µM throughout. In addition, in assay [7], the TGI was determined as 99.8 µM.

For the molecule `NCC1OC(n2cnc3c(=O)[nH]c(N)nc32)C(O)C1O` (configuration not stated), the TGI in assay [1], in [2], in assay [3], in assay [4], in assay [5] and in assay [6] was greater than 100 µM throughout. The molecule further came in with a TGI in [7] greater than 100 µM.

On to `CC([C@H]1CCC2C3CCC4CC5(CC[C@]4(C)C3CC[C@@]21C)c1ccccc1C(=O)N5C)N(C)C` (some centres not stated), for which the TGI is greater than 100 µM in [8]; 75.4 µM in assay [9]; 46.3 µM in [2]; 78.3 µM in assay [10]; greater than 100 µM in assay [6].

On to `CN(C1=NS(=O)(=O)N=C(N(C)c2ccccc2)O1)c1ccccc1`, for which the TGI in [1] is 39 µM; in assay [2], 33.7 µM; in assay [3], 69.9 µM; in [4], 41 µM; in [5] it was 30.4 µM; in assay [6], 51.6 µM. The same molecule showed a TGI in assay [7] greater than 100 µM.
